This note sets out measurements from ChEMBL document CHEMBL3045845, “Predicting 3H-1,2,4-triazolinones as angiotensin II receptor antagonists: 2D and 3D QSAR by kNN-molecular field analysis approach” (Med Chem Res, 2012).

This assay has as its target T1, Angiotensin II receptor (AT-1) type-1 (Rattus norvegicus, UniProt P29089+P25095).
T1 sequence (P29089 whole entry): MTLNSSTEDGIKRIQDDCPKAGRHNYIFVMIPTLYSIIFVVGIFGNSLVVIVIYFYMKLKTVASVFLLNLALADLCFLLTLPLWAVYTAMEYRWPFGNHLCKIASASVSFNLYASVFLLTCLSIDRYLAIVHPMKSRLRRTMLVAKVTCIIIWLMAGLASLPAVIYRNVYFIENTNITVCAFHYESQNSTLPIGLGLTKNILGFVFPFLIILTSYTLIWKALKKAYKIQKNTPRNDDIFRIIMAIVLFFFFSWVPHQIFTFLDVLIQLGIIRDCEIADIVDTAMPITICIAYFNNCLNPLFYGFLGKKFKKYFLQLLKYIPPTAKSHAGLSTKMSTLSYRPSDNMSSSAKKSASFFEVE
T1 sequence (P25095 whole entry): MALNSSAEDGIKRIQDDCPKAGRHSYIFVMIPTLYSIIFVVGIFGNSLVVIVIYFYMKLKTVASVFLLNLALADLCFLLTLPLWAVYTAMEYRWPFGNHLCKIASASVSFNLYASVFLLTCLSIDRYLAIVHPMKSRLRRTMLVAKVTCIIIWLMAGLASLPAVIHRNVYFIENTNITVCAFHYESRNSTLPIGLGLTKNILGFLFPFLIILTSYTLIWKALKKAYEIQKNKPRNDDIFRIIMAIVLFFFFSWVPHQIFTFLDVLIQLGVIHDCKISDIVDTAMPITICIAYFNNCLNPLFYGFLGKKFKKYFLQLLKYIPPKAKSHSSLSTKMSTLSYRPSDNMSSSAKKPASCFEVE
The experiment in a line: Displacement of [125I]-angiotensin 2 from angiotensin AT1 receptor in Rattus norvegicus (rat) uterine membranes. In general terms: In a radioligand displacement assay an active substance lowers the binding of a labelled ligand.
In the case of `CCCCc1nn(CC(OC)c2ccccc2)c(=O)n1Cc1ccc(-c2ccccc2-c2nn[nH]n2)cc1` (stereo unspecified), the IC50 (as a rule, the concentration that inhibits the measured activity by half) is listed as 12 nM and the pIC50 (commonly −log10 of the IC50, conventionally taken in molar units) amounted to 7.921.

For `CCCCc1nn(CC(OCc2ccccc2)c2ccccc2)c(=O)n1Cc1ccc(-c2ccccc2-c2nn[nH]n2)cc1` (stereo unspecified), the IC50 turned out to be 280 nM and the pIC50 is given as 6.553.

Consider `CCCCc1nn(CCCC)c(=O)n1Cc1ccc(-c2ccccc2C(=O)O)cc1`, for which the IC50 worked out at 101 nM and the pIC50 is 6.996.

On to `CCCCc1nn(Cc2ccccc2)c(=O)n1Cc1ccc(-c2ccccc2-c2nn[nH]n2)cc1`, for which the IC50 was 16 nM and the pIC50 stood at 7.796.

`CCCCc1nn(CCCCCC(=O)OCC)c(=O)n1Cc1ccc(-c2ccccc2-c2nn[nH]n2)cc1`: the IC50 amounted to 9.8 nM and the pIC50 was determined as 8.009.

For `CCCCc1nn(C(Cc2ccccc2)C(=O)c2ccccc2)c(=O)n1Cc1ccc(-c2ccccc2-c2nn[nH]n2)cc1` (stereo unspecified), the IC50 was found to be 5800 nM and the pIC50 amounted to 5.237.

The compound `CCCCCCCCn1nc(CCCC)n(Cc2ccc(-c3ccccc3-c3nn[nH]n3)cc2)c1=O` displayed an IC50 of 170 nM and a pIC50 of 6.77.

For `CCCCc1nn(CC(=O)OCC)c(=O)n1Cc1ccc(-c2ccccc2-c2nn[nH]n2)cc1`, the IC50 was found to be 9 nM and the pIC50 is recorded as 8.046.

On to `CCCCc1nn(CCCc2ccccc2)c(=O)n1Cc1ccc(-c2ccccc2-c2nn[nH]n2)cc1`, for which the IC50 amounted to 18 nM and the pIC50 is on record as 7.745.

Compound `CCCCc1nn(Cc2ccc3ccccc3c2)c(=O)n1Cc1ccc(-c2ccccc2-c2nn[nH]n2)cc1` came in with an IC50 of 280 nM and a pIC50 of 6.553.

In turn, `CCCCc1nnc(O)n1Cc1ccc(-c2ccccc2C(=O)O)cc1` showed an IC50 of 1500 nM and a pIC50 of 5.824.

Compound `CCCCc1nn(CCC2CCCCC2)c(=O)n1Cc1ccc(-c2ccccc2-c2nn[nH]n2)cc1` gave an IC50 of 18 nM and a pIC50 of 7.745.

`CCCCc1nn(CC(OCC(=O)O)c2ccccc2)c(=O)n1Cc1ccc(-c2ccccc2-c2nn[nH]n2)cc1` (stereo unspecified) had an IC50 of 30 nM and a pIC50 of 7.523.

In turn, `CCCCCCn1nc(CCCC)n(Cc2ccc(-c3ccccc3-c3nn[nH]n3)cc2)c1=O` displayed an IC50 of 8.7 nM and a pIC50 of 8.06.

`CCCCc1nn(CCCCC(=O)O)c(=O)n1Cc1ccc(-c2ccccc2-c2nn[nH]n2)cc1` gave an IC50 of 12 nM and a pIC50 of 7.921.

`CCCCc1nn(CC(=O)C23CC4CC(CC(C4)C2)C3)c(=O)n1Cc1ccc(-c2ccccc2-c2nn[nH]n2)cc1` gave an IC50 of 25 nM and a pIC50 of 7.602.

In turn, `CCCCc1nn(CC(O)c2ccccc2)c(=O)n1Cc1ccc(-c2ccccc2-c2nn[nH]n2)cc1` (stereo unspecified) showed an IC50 of 3.6 nM and a pIC50 of 8.444.

Regarding `CCCCc1nn(CC(=O)O)c(=O)n1Cc1ccc(-c2ccccc2-c2nn[nH]n2)cc1`, the IC50 turned out to be 91 nM and the pIC50 amounted to 7.041.

The compound `CCCCc1nn(CC(O)c2cc(OC)ccc2OC)c(=O)n1Cc1ccc(-c2ccccc2-c2nn[nH]n2)cc1` (stereo unspecified) yielded an IC50 of 22 nM and a pIC50 of 7.658.

`CCCCc1nn(CCC(C)CC(C)(C)C)c(=O)n1Cc1ccc(-c2ccccc2-c2nn[nH]n2)cc1` (stereo unspecified) had an IC50 of 35 nM and a pIC50 of 7.456.

`CCCCc1nn(C(C)(C)C(=O)c2ccccc2)c(=O)n1Cc1ccc(-c2ccccc2-c2nn[nH]n2)cc1`: the IC50 is reported as 43 nM and the pIC50 is listed as 7.367.

Regarding `CCCCc1nn(CCCCCC(=O)O)c(=O)n1Cc1ccc(-c2ccccc2-c2nn[nH]n2)cc1`, the IC50 came out at 17 nM and the pIC50 came out at 7.77.

`CCCCc1nn(C(C)CC)c(=O)n1Cc1ccc(-c2ccccc2-c2nn[nH]n2)cc1` (stereo unspecified) showed a half-inhibitory concentration (IC50) of 10 nM and a pIC50 of 8.

On to `CCCCc1nn(C(CC(=O)OCC)C(=O)c2ccccc2)c(=O)n1Cc1ccc(-c2ccccc2-c2nn[nH]n2)cc1` (stereo unspecified), for which the IC50 is 36 nM and the pIC50 amounted to 7.444.

Regarding `CCCCCn1nc(CCCC)n(Cc2ccc(-c3ccccc3-c3nn[nH]n3)cc2)c1=O`, the IC50 was determined as 5.6 nM and the pIC50 came out at 8.252.

`CCCCc1nn(CC(=O)OC(C)(C)C)c(=O)n1Cc1ccc(-c2ccccc2-c2nn[nH]n2)cc1`: the IC50 is given as 16 nM and the pIC50 turned out to be 7.796.

For `CCCCc1nnc(O)n1Cc1ccc(-c2ccccc2-c2nn[nH]n2)cc1`, the concentration for half-maximal inhibition (IC50) is reported as 42 nM and the pIC50 turned out to be 7.377.

The compound `CCCCc1nn(CC(OCC)c2ccccc2)c(=O)n1Cc1ccc(-c2ccccc2-c2nn[nH]n2)cc1` (stereo unspecified) yielded an IC50 of 15 nM and a pIC50 of 7.824.

Compound `CCCCc1nn(CCc2ccccc2)c(=O)n1Cc1ccc(-c2ccccc2-c2nn[nH]n2)cc1` gave an IC50 of 3.1 nM and a pIC50 of 8.509.

In turn, `CCCCc1nn(CC(OCCC)c2ccccc2)c(=O)n1Cc1ccc(-c2ccccc2-c2nn[nH]n2)cc1` (stereo unspecified) returned an IC50 of 45 nM and a pIC50 of 7.347.

The compound `CCCCc1nn(CCC)c(=O)n1Cc1ccc(-c2ccccc2-c2nn[nH]n2)cc1` displayed an IC50 of 15 nM and a pIC50 of 7.824.

For the compound `CCCCc1nn(CC(=O)c2cc(OC)ccc2OC)c(=O)n1Cc1ccc(-c2ccccc2-c2nn[nH]n2)cc1`, the IC50 was 21 nM and the pIC50 amounted to 7.678.

For the compound `CCCCc1nn(CC(OCC(=O)OCC)c2ccccc2)c(=O)n1Cc1ccc(-c2ccccc2-c2nn[nH]n2)cc1` (stereo unspecified), the IC50 was 180 nM and the pIC50 came to 6.745.
